# Laboratory results reported in US20230364230A1, “COMBINATION THERAPY FOR CANCER” (ENGMAB SÀRL, priority 2020, published 2023).
# Experiments:
# [1] = test system: H929 target cells; assay: Protein 1 induced ADCC after pretreatment of PBMCs with different concentrations (H929 lysis, flow cytometry); format: cell-based, human; settings: for % lysis with Protein 1: 0.1 nM Protein 1, % change from DMSO control + Protein 1; for % lysis without Protein 1: % change from DMSO control
# Procedure: PBMCs from two healthy donors were pre-incubated for 24 hours or 48 hours in the presence of CC-92480 or a DMSO control. CC-92480 was added at 0.001 nM, 0.01 nM, 0.1 nM, 1 nM and 10 nM concentrations. After pretreatment, PBMCs were incubated for an additional 18 hours or overnight in the presence of H929 target cells with or without the addition of 0.1 nM of Protein 1. Samples were analyzed via flow cytometry for H929 depletion. Specific lysis was calculated as following: (1−((test sample H929 count)/(H929 count in DMSO control without Protein 1)))*100. PBMCs from two healthy donors were pre-incubated for 24 hours or 48 hours in the presence of CC-220 or a DMSO control. CC-220 was added at 0.01 nM, 0.1 nM, 1 nM, 10 nM and 100 nM concentrations. After pretreatment, PBMCs were incubated for an additional 18 hours or overnight in the presence of H929 target cells with or without the addition of 0.1 nM of Protein 1. Samples were analyzed via flow cytometry for H929 depletion. Specific lysis was calculated as following: (1−((test sample H929 count)/(H929 count in DMSO control without Protein 1)))*100. […] Data is normalized to % change of sample from the control treated DMSO sample+/−Protein 1. For % lysis without Protein 1, the control sample is PBMC pretreated with DMSO+H929. For % lysis with Protein 1, the control sample is PBMC pretreated with DMSO+H929+0.1 nM of Protein 1.
# [2] = test system: H929 target cells; assay: Protein 1 induced ADCC after pretreatment of both PBMC and H929 target cells; format: cell-based, human
# Procedure: PBMCs from a healthy donor were pre-incubated for 48 hours in the presence of CC-92480 or CC-220 (iberdomide) or a DMSO control. Additionally, H929 cells were also pre-incubated separately from the PBMCs for 48 hours with CELMoD. For CC-92480, PBMC and H929 were incubated in 0.1 nM, 1 nM or 10 nM concentrations. For CC-220, cells were incubated in 1 nM or 10 nM concentrations. Cells were also pre-incubated in with a DMSO control. After pretreatment, PBMC and H929 were combined based on their matched treatments and incubated for an additional 18 hours or overnight in the presence of a dose range of Protein 1, 0 nM to 10 nM. Samples were analyzed via flow cytometry for H929 depletion. Specific lysis was calculated as following: (1−((test sample H929 count)/(H929 count in DMSO control without PBMC and without Protein 1)))*100. PBMC and H929 cells were pretreated separately with varying doses of CC-92480 (FIG. 14A) or CC-220 (FIG. 14B) or a DMSO control for 48 hours. After pretreatment, PBMCs and H929 target cells were combined and co-cultured overnight with a dose range of Protein 1 at 0 nM to 10 nM. H929 cell depletion was analyzed by flow cytometry. […] Pretreatment of both PBMC and H929 target cells with CC-92480 or CC-220 (iberdomide) enhanced Protein 1 induced ADCC.
# [3] = test system: H929 target cells; assay: Protein 1 induced ADCC after pretreatment of PBMCs with single concentration, Protein 1 dose range; format: cell-based, human; settings: PBMCs pretreated 24 or 48 hours with 0.1 nM CC-92480 or 1 nM CC-220; Protein 1 0 nM to 10 nM
# Procedure: PBMCs from a healthy donor were preincubated for 24 hours or 48 hours in the presence of CC-92480 at 0.1 nM or CC-220 (iberdomide) at 1 nM or a DMSO control. After pretreatment, PBMCs were incubated for an additional 18 hours or overnight in the presence of H929 target cells with concentrations of Protein 1 ranging from 0 nM to 10 nM. Samples were analyzed via flow cytometry for H929 depletion. Specific lysis was calculated as following: (1−((test sample H929 count)/(H929 count in DMSO control without Protein 1)))*100. PBMCs were pretreated 0.1 nM of CC-92480 or 1 nM of CC-220 or DMSO control for either 24 hours (FIG. 13A) or 48 hours (FIG. 13B). After pretreatment, PBMCs were cultured with H929 target cells and 0 nM to 10 nM of Protein 1 overnight. H929 lysis was determined via flow cytometry. Pretreatment of PBMCs with single concentration of CC-92480 or CC-220 enhanced Protein 1 induced ADCC.
# [4] = molecular target: T1, Aiolos (Homo sapiens, UniProt Q96SW2+Q9UKT9); assay: Degradation of Aiolos in primary NK cells (intracellular staining, flow cytometry); format: cell-based; parameters: endogenous in cells; host or cells: primary human NK cells gated from healthy-donor PBMCs; settings: PBMCs from healthy donors (n=7), dose titrations, 5 hours
# Procedure: (§1) Intracellular staining of Aiolos and Ikaros in primary human NK cells was performed by flow cytometry gating on live, CD3-CD4-CD8-CD56+CD16+NK cell populations.
# [5] = test system: interferon stimulated genes; assay: Induction of interferon stimulated genes in DLBCL cells; format: cell-based; settings: correlated with degradation of Aiolos and Ikaros
# Procedure: (§2) Karpas 422, WSU-DLCL2, U2932 and TMD8 cells were treated with avadomide at a concentration of 0.1, 1, or 10 μM. The expression of Aiolos, Ikaros, […] and IRF4 were measured by western blot.
# The induction of interferon stimulated genes was correlated with the degradation of Aiolos and Ikaros. […] Such direct regulation was shown using Chromatin Immunoprecipitation sequencing (ChIP-seq) analysis and generic methods, see, e.g., Hagner et al, Blood, 126(6):779-789 (2015), which is incorporated by reference in its entirety.
# [6] = molecular target: T2, Ikaros (Homo sapiens, UniProt Q13422+Q96SW2); assay: Degradation of Ikaros in primary NK cells (intracellular staining, flow cytometry); format: cell-based; parameters: endogenous in cells; host or cells: primary human NK cells gated from healthy-donor PBMCs; settings: PBMCs from healthy donors (n=7), dose titrations, 5 hours
# Procedure: as §1
# [7] = test system: NK cells; assay: NK cell proliferation in DLBCL patient PBMCs stimulated with anti-CD3; format: cell-based, human; settings: PBMCs treated 1 hour prior to anti-CD3 stimulation for 3 days
# Procedure: Percentage of NK cells was analyzed via flow cytometry gated on live CD3-CD19-CD14-CD56+CD16+NK cells. Cytokinic NK cells were […]16^low and cytotoxic NK cells were CD56^lowCD16^high populations.
# [8] = molecular target: T1, Aiolos; assay: Aiolos expression by western blot in DLBCL cells; format: cell-based; parameters: endogenous in cells; host or cells: Karpas 422, WSU-DLCL2, U2932 and TMD8 DLBCL cells; settings: Karpas 422, WSU-DLCL2, U2932 and TMD8 cells, 0.1, 1, or 10 μM
# Procedure: as §2
# [9] = molecular target: T2, Ikaros; assay: Ikaros expression by western blot in DLBCL cells; format: cell-based; parameters: endogenous in cells; host or cells: Karpas 422, WSU-DLCL2, U2932 and TMD8 DLBCL cells; settings: Karpas 422, WSU-DLCL2, U2932 and TMD8 cells, 0.1, 1, or 10 μM
# Procedure: as §2
# [10] = test system: TMD8 cells; assay: HLA-DR and CD86 expression in TMD8 cells by flow cytometry; format: cell-based; settings: 48 hours
# Procedure: DLBCL cell line TMD8 was treated with avadomide for 48 hours. […] The result corroborated the ChIP-seq analysis (FIG. 10B).
# [11] = test system: NKG2D+ NK cells; assay: Surface expression of NKG2D on NK cells in DLBCL patient PBMC; format: cell-based, human; settings: PBMCs treated 1 hour prior to anti-CD3 stimulation for 3 days
# Procedure: Surface expression of NKG2D was measured by flow cytometry gated on live CD3-CD19-CD14-CD56+CD16+NK cells.
# [12] = pretreatment 0.1 nM, 24 hour, donor 1
# [13] = pretreatment 0.1 nM, 24 hour, donor 2
# [14] = pretreatment 0.1 nM, 48 hour, donor 1
# [15] = pretreatment 0.1 nM, 48 hour, donor 2
# [16] = pretreatment 10 nM, 24 hour, donor 1
# [17] = pretreatment 10 nM, 24 hour, donor 2
# [18] = pretreatment 10 nM, 48 hour, donor 1
# [19] = pretreatment 10 nM, 48 hour, donor 2
# T2 sequence (Q13422 whole entry): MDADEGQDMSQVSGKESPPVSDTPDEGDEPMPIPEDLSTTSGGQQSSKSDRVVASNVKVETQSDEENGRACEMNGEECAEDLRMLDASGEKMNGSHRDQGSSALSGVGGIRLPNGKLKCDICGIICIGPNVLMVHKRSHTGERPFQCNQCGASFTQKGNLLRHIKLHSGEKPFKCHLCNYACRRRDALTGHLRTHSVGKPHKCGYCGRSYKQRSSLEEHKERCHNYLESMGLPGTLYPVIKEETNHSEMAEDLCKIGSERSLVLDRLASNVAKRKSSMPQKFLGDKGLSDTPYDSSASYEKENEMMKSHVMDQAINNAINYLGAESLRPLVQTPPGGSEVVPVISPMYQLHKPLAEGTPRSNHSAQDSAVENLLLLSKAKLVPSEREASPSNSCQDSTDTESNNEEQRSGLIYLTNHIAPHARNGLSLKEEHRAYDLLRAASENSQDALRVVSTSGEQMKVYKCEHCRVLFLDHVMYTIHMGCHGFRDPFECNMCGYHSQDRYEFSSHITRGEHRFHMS
# T2 sequence (Q96SW2 whole entry): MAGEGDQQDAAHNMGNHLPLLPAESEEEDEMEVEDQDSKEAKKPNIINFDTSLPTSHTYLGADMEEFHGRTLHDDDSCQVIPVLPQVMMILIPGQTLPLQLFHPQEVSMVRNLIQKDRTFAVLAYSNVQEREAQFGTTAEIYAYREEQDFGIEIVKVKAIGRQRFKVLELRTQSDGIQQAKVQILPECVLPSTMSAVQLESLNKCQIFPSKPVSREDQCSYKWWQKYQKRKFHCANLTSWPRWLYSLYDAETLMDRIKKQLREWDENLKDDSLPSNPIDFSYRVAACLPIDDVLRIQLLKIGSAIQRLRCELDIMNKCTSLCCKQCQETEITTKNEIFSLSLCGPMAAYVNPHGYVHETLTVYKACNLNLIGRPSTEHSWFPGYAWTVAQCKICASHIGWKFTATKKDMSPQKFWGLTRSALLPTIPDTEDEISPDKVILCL
# T2 sequence (Q16531 whole entry partner): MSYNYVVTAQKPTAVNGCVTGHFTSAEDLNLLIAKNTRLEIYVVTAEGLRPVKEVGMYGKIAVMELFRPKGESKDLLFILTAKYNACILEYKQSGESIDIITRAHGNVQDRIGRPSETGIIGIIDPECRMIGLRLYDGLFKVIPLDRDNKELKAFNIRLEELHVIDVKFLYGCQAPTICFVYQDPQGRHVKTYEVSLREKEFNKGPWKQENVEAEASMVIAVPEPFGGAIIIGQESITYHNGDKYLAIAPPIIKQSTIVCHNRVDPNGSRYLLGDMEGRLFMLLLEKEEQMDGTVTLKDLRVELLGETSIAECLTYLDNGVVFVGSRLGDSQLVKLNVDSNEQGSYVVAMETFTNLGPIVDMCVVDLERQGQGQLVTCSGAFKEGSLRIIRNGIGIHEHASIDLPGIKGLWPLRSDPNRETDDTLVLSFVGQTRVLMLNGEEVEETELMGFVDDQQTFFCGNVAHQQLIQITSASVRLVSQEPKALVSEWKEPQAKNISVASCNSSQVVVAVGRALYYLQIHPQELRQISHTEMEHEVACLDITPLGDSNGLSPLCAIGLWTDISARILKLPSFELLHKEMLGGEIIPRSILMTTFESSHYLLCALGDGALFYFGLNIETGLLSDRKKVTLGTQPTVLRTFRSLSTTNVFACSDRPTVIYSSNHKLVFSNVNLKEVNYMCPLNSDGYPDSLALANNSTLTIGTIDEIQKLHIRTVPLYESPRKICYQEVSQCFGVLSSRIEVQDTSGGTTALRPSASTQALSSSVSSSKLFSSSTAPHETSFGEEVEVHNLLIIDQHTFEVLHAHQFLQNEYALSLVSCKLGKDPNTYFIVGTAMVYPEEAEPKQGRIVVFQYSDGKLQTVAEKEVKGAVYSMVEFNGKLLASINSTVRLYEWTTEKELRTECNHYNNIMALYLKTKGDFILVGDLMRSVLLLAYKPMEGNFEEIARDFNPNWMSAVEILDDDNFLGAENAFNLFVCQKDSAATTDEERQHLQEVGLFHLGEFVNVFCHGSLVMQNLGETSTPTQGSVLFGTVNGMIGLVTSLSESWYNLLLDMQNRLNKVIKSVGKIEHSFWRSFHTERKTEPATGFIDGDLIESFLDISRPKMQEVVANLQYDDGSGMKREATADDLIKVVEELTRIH
# T1 sequence (Q9UKT9 whole entry): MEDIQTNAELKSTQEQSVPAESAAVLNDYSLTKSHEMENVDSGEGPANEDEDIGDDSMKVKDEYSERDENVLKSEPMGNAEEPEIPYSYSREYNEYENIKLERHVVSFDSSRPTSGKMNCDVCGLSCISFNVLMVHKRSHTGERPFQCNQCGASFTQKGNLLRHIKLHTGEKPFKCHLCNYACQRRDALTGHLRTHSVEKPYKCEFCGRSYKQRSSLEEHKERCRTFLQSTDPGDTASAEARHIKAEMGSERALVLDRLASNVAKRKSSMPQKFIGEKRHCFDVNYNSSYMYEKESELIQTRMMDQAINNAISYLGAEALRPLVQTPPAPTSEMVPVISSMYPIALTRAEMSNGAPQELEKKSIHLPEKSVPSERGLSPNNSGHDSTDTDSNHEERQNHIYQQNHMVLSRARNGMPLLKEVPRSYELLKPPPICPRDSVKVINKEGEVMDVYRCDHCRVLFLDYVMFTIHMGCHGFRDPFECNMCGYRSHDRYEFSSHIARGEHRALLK
# T1 sequence (Q96SW2 whole entry): as the sequence (Q96SW2 whole entry) above
# T1 sequence (Q16531 whole entry partner): as the sequence (Q16531 whole entry partner) above
compound,measurement,setting,value
"N#Cc1ccc(N2CCN(Cc3ccc(COc4cccc5c4CN([C@H]4CCC(=O)NC4=O)C5=O)cc3)CC2)c(F)c1 [CC-92480, (S)-4-(4-(4-(((2-(2,6-dioxopiperidin-3-yl)-1-oxoisoindolin-4-yl)oxy)methyl)benzyl)piperazin-1-yl)-3-fluorobenzonitrile]",Protein 1 induced ADCC (H929 lysis),"[1]; PBMCs pretreated 24 or 48 hours at different concentrations, 0.1 nM Protein 1 overnight",enhanced
same,% lysis difference with Protein 1,[1]; [12],48.85%
same,% lysis with Protein 1,[1]; [12],58.27%
same,% lysis without Protein 1,[1]; [12],9.42%
same,% lysis difference with Protein 1,[1]; [13],76.64%
same,% lysis with Protein 1,[1]; [13],67.82%
same,% lysis without Protein 1,[1]; [13],−8.82%
same,% lysis difference with Protein 1,[1]; [14],79.40%
same,% lysis with Protein 1,[1]; [14],64.54%
same,% lysis without Protein 1,[1]; [14],−14.86%
same,% lysis difference with Protein 1,[1]; [15],36.79%
same,% lysis with Protein 1,[1]; [15],82.02%
same,% lysis without Protein 1,[1]; [15],45.23%
same,% lysis difference with Protein 1,[1]; [16],27.75%
same,% lysis with Protein 1,[1]; [16],28.79%
same,% lysis without Protein 1,[1]; [16],1.04%
same,% lysis difference with Protein 1,[1]; [17],−33.32%
same,% lysis with Protein 1,[1]; [17],−43.51%
same,% lysis without Protein 1,[1]; [17],−10.19%
same,% lysis difference with Protein 1,[1]; [18],72.35%
same,% lysis with Protein 1,[1]; [18],42.46%
same,% lysis without Protein 1,[1]; [18],−29.89%
same,% lysis difference with Protein 1,[1]; [19],52.72%
same,% lysis with Protein 1,[1]; [19],59.57%
same,% lysis without Protein 1,[1]; [19],6.85%
same,susceptibility of H929 target cells to lysis,"[2]; H929 target cells pretreated 48 hours, most notably at Protein 1 0.01-0.1 nM",more susceptible to lysis
same,Protein 1 induced ADCC (H929 cell depletion),"[2]; PBMC and H929 pretreated separately 48 hours, Protein 1 0 nM to 10 nM",enhanced
same,Protein 1 induced ADCC (H929 lysis),[3],enhanced
"Cc1nc2cccc(N)c2c(=O)n1C1CCC(=O)NC1=O (centres unmarked) [avadomide, 3-(5-amino-2-methyl-4-oxoquinazolin-3(4H)-yl)piperidine-2,6-dione]",degradation of Aiolos in primary NK cells,[4],mediates degradation
same,induction of interferon stimulated genes in DLBCL cells,[5],induction
same,degradation of Ikaros in primary NK cells,[6],mediates degradation
same,NK cell proliferation in DLBCL patient samples,[7],dose dependently enhanced
same,degradation of Aiolos in DLBCL cells,[8],mediated degradation
same,degradation of Ikaros in DLBCL cells,[9],mediated degradation
same,expression of CD86,[10],enhanced expression
same,expression of HLA-DR,[10],enhanced expression
same,NKG2D+ NK cells in DLBCL patient PBMC,[11],significantly expanded
"Nc1cccc2c1CN(C1CCC(=O)NC1=O)C2=O (centres unmarked) [lenalidomide, 3-(7-amino-3-oxo-1H-isoindol-2-yl)piperidine-2,6-dione]",NKG2D+ NK cells in DLBCL patient PBMC,[11],significantly expanded
